Assay results as given in US7868135B2, “Compositions of lipopeptide antibiotic derivatives and methods of use thereof” (priority 2003, dated 2011).
Starred links: 1 amine or outer side, 2 acyl side, 3 side chain; linkers in the order of their positions; H or OH if unused. Positions of bridges follow the written chain, without caps; N, C: chain ends. Non-standard residues stand in square brackets, D forms with d. Residues, ends and D or L forms follow the SMILES beside them. Groups on a side chain read outwards from the residue. ξ: configuration not given here. *: point of attachment. X30 = CC(NC(=O)Cc1ccc(N)cc1)C(N[*:1])C(=O)[*:2]; X17 = CSC[C@H](N)C(=O)NC(C)C(N[*:1])C(=O)[*:2]; ξAbu(βξ-NH2) = CC(N[*:3])C(N[*:1])C(=O)[*:2]; Lys(Me3) = C[N+](C)(C)CCCC[C@H](N)C(=O)O; Arg(Me2s) = CN=C(NC)NCCC[C@H](N)C(=O)O; Pentadecanoyl = CCCCCCCCCCCCCCC(=O)*; ξAsp(βξ-Me) = CC(C(=O)O)C(N)C(=O)O; Dab = NCC[C@H](N)C(=O)O; Pip = O=C(O)[CH]1CCCCN1; ξD = NC(CC(=O)O)C(=O)O; ξPip = O=C(O)C1CCCCN1; ξV = CC(C)C(N)C(=O)O; ξP = O=C(O)C1CCCN1; GABA = NCCCC(=O)O

These molecules were tested on Staphylococcus aureus (MSSA). Conditions: 24 h.
Procedure, shortened: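 Broth microdilution MIC per NCCLS M7-A6 with doubling serial dilutions, in cation-adjusted Mueller-Hinton broth supplemented with 0.625 mM calcium.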

First: CCCCCCCCCCCCCCC(=O)NC(CC(=O)O)C(=O)NC1C(=O)N2CCCCC2C(=O)NC(C(C)C(=O)O)C(=O)NC(CC(=O)O)C(=O)NCC(=O)NC(CC(=O)O)C(=O)NCC(=O)NC(C(C)NC(=O)CNC(=O)[C@@H](N)CN)C(=O)NC(C(C)C)C(=O)N2CCCC2C(=O)NC1C (stereo partly drawn) [Compound 157, C15-Amphomycin-9-Gly-Dap]
Second: CCCCCCCCCCCCCCC(=O)NC(CC(=O)O)C(=O)NC1C(=O)N2CCCCC2C(=O)NC(C(C)C(=O)O)C(=O)NC(CC(=O)O)C(=O)NCC(=O)NC(CC(=O)O)C(=O)NCC(=O)NC(C(C)NC(=O)CNC(=O)[C@@H](N)CCCCCN)C(=O)NC(C(C)C)C(=O)N2CCCC2C(=O)NC1C (stereo partly drawn) [Compound 158, C15-Amphomycin-9-Gly-hLys]
The MIC of the first is higher: 4 to 8 µg/mL for the first, 1 to 2 µg/mL for the second.

Compared with `CCCCCCCCCCCCCCC(=O)NC(CC(=O)O)C(=O)NC1C(=O)N2CCCCC2C(=O)NC(C(C)C(=O)O)C(=O)NC(CC(=O)O)C(=O)NCC(=O)NC(CC(=O)O)C(=O)NCC(=O)NC(C(C)NC(=O)CCCNC(=O)[C@@H](N)CCN)C(=O)NC(C(C)C)C(=O)N2CCCC2C(=O)NC1C` (stereo partly drawn) [Compound 159, C15-Amphomycin-9-GABA-gDab] (Pentadecanoyl-[ξD][ξAbu(βξ-NH2)][ξPip][ξAsp(βξ-Me)][ξD]G[ξD]G[ξAbu(βξ-NH2)]([GABA-Dab])[ξV][ξP]; lactam 2-C), `CCCCCCCCCCCCCCC(=O)NC(CC(=O)O)C(=O)NC1C(=O)N2CCCCC2C(=O)NC(C(C)C(=O)O)C(=O)NC(CC(=O)O)C(=O)NCC(=O)NC(CC(=O)O)C(=O)NCC(=O)NC(C(C)NC(=O)CCCCNC(=O)CCN)C(=O)NC(C(C)C)C(=O)N2CCCC2C(=O)NC1C` (stereo not drawn) [Compound 176, C15-Amphomycin-9-(5-Ava)-(β-Ala)] is higher in MIC: 0.5 to 1 µg/mL for the first, 4 µg/mL for the second.

First: CCCCCCCCCCCCCCC(=O)NC(CC(=O)O)C(=O)NC1C(=O)N2CCCCC2C(=O)NC(C(C)C(=O)O)C(=O)NC(CC(=O)O)C(=O)NCC(=O)NC(CC(=O)O)C(=O)NCC(=O)NC(C(C)NC(=O)C(C)(C)N)C(=O)NC(C(C)C)C(=O)N2CCCC2C(=O)NC1C (stereo not drawn) [Compound 161, C15-Amphomycin-9-Aib]
Second: CCCCCCCCCCCCCCC(=O)NC(CC(=O)O)C(=O)NC1C(=O)N2CCCCC2C(=O)NC(C(C)C(=O)O)C(=O)NC(CC(=O)O)C(=O)NCC(=O)NC(CC(=O)O)C(=O)NCC(=O)NC(C(C)NC(=O)[C@@H](N)C(C)C)C(=O)NC(C(C)C)C(=O)N2CCCC2C(=O)NC1C (stereo partly drawn) [Compound 169, C15-Amphomycin-9-Val]
The MIC of the first is 2-fold higher: 8 µg/mL for the first, 4 µg/mL for the second.

Compared with `CCCCCCCCCCCCCCC(=O)NC(CC(=O)O)C(=O)NC1C(=O)N2CCCCC2C(=O)NC(C(C)C(=O)O)C(=O)NC(CC(=O)O)C(=O)NCC(=O)NC(CC(=O)O)C(=O)NCC(=O)NC(C(C)NC(=O)[C@@H](N)CSC)C(=O)NC(C(C)C)C(=O)N2CCCC2C(=O)NC1C` (stereo partly drawn) [Compound 162, C15-Amphomycin-9-MeCys] (Pentadecanoyl-[ξD][ξAbu(βξ-NH2)][ξPip][ξAsp(βξ-Me)][ξD]G[ξD]G[X17][ξV][ξP]; lactam 2-C), `CCCCCCCCCCCCCCC(=O)NC(CC(=O)O)C(=O)NC1C(=O)N2CCCCC2C(=O)NC(C(C)C(=O)O)C(=O)NC(CC(=O)O)C(=O)NCC(=O)NC(CC(=O)O)C(=O)NCC(=O)NC(C(C)NC(=O)[C@@H](N)CC)C(=O)NC(C(C)C)C(=O)N2CCCC2C(=O)NC1C` (stereo partly drawn) [Compound 164, C15-Amphomycin-9-Abu] is 2-fold lower in MIC: 8 µg/mL for the first, 4 µg/mL for the second.

`CCCCCCCCCCCCCCC(=O)NC(CC(=O)O)C(=O)NC1C(=O)N2CCCCC2C(=O)NC(C(C)C(=O)O)C(=O)NC(CC(=O)O)C(=O)NCC(=O)NC(CC(=O)O)C(=O)NCC(=O)NC(C(C)NC(=O)[C@@H](N)CCC)C(=O)NC(C(C)C)C(=O)N2CCCC2C(=O)NC1C` (stereo partly drawn) [Compound 163, C15-Amphomycin-9-Nvl] and `CCCCCCCCCCCCCCC(=O)NC(CC(=O)O)C(=O)NC1C(=O)N2CCCCC2C(=O)NC(C(C)C(=O)O)C(=O)NC(CC(=O)O)C(=O)NCC(=O)NC(CC(=O)O)C(=O)NCC(=O)NC(C(C)NC(=O)[C@@H](N)CCCC)C(=O)NC(C(C)C)C(=O)N2CCCC2C(=O)NC1C` (stereo partly drawn) [Compound 171, C15-Amphomycin-9-Nle] are the same in MIC: 8 µg/mL for the first, 8 µg/mL for the second.

Compared with `CCCCCCCCCCCCCCC(=O)NC(CC(=O)O)C(=O)NC1C(=O)N2CCCCC2C(=O)NC(C(C)C(=O)O)C(=O)NC(CC(=O)O)C(=O)NCC(=O)NC(CC(=O)O)C(=O)NCC(=O)NC(C(C)NC(=O)[C@@H](N)CCCNC(N)=O)C(=O)NC(C(C)C)C(=O)N2CCCC2C(=O)NC1C` (stereo partly drawn) [Compound 165, C15-Amphomycin-9-Cit], `CCCCCCCCCCCCCCC(=O)NC(CC(=O)O)C(=O)NC1C(=O)N2CCCCC2C(=O)NC(C(C)C(=O)O)C(=O)NC(CC(=O)O)C(=O)NCC(=O)NC(CC(=O)O)C(=O)NCC(=O)NC(C(C)NC(=O)[C@@H](N)CCCNC(=NC)NC)C(=O)NC(C(C)C)C(=O)N2CCCC2C(=O)NC1C` (stereo partly drawn) [Compound 166, C15-Amphomycin-9-(ME)2Arg] (Pentadecanoyl-[ξD][ξAbu(βξ-NH2)][ξPip][ξAsp(βξ-Me)][ξD]G[ξD]G[ξAbu(βξ-NH2)](Arg(Me2s))[ξV][ξP]; lactam 2-C) is 8-fold higher in MIC: 4 µg/mL for the first, 32 µg/mL for the second.

Compared with `CCCCCCCCCCCCCCC(=O)NC(CC(=O)O)C(=O)NC1C(=O)N2CCCCC2C(=O)NC(C(C)C(=O)O)C(=O)NC(CC(=O)O)C(=O)NCC(=O)NC(CC(=O)O)C(=O)NCC(=O)NC(C(C)NC(=O)[C@@H]2C[C@@H](O)CN2)C(=O)NC(C(C)C)C(=O)N2CCCC2C(=O)NC1C` (stereo partly drawn) [Compound 167, C15-Amphomycin-9-Hyp], `CCCCCCCCCCCCCCC(=O)NC(CC(=O)O)C(=O)NC1C(=O)N2CCCCC2C(=O)NC(C(C)C(=O)O)C(=O)NC(CC(=O)O)C(=O)NCC(=O)NC(CC(=O)O)C(=O)NCC(=O)NC(C(C)NC(=O)Cc2ccc(N)cc2)C(=O)NC(C(C)C)C(=O)N2CCCC2C(=O)NC1C` (stereo not drawn) [Compound 168, C15-Amphomycin-9-(p-Apa)] (Pentadecanoyl-D[ξAbu(βξ-NH2)][Pip][ξAsp(βξ-Me)]DGDG[X30]VP; lactam 2-C; configuration not given here) is higher in MIC: 4 to 8 µg/mL for the first, 32 to 64 µg/mL for the second.

Compared with `CCCCCCCCCCCCCCC(=O)NC(CC(=O)O)C(=O)NC1C(=O)N2CCCCC2C(=O)NC(C(C)C(=O)O)C(=O)NC(CC(=O)O)C(=O)NCC(=O)NC(CC(=O)O)C(=O)NCC(=O)NC(C(C)NC(=O)[C@@H](N)CCCC[N+](C)(C)C)C(=O)NC(C(C)C)C(=O)N2CCCC2C(=O)NC1C` (stereo partly drawn) [Compound 170, C15-Amphomycin-9-(ME)3Lys] (Pentadecanoyl-[ξD][ξAbu(βξ-NH2)][ξPip][ξAsp(βξ-Me)][ξD]G[ξD]G[ξAbu(βξ-NH2)](Lys(Me3))[ξV][ξP]; lactam 2-C), `CCCCCCCCCCCCCCC(=O)NC(CC(=O)O)C(=O)NC1C(=O)N2CCCCC2C(=O)NC(C(C)C(=O)O)C(=O)NC(CC(=O)O)C(=O)NCC(=O)NC(CC(=O)O)C(=O)NCC(=O)NC(C(C)NC(=O)[C@H](CCCCN)NC(=O)CN)C(=O)NC(C(C)C)C(=O)N2CCCC2C(=O)NC1C` (stereo partly drawn) [Compound 193, C15-Amphomycin-9-Lys-Gly] is higher in MIC: 2 µg/mL for the first, 4 to 8 µg/mL for the second.

First: CCCCCCCCCCCCCCC(=O)NC(CC(=O)O)C(=O)NC1C(=O)N2CCCCC2C(=O)NC(C(C)C(=O)O)C(=O)NC(CC(=O)O)C(=O)NCC(=O)NC(CC(=O)O)C(=O)NCC(=O)NC(C(C)NC(=O)CCNC(=O)CCCCN)C(=O)NC(C(C)C)C(=O)N2CCCC2C(=O)NC1C (stereo not drawn) [Compound 173, C15-Amphomycin-9-(β-Ala)-(5-Ava)]
Second: CCCCCCCCCCCCCCC(=O)NC(CC(=O)O)C(=O)NC1C(=O)N2CCCCC2C(=O)NC(C(C)C(=O)O)C(=O)NC(CC(=O)O)C(=O)NCC(=O)NC(CC(=O)O)C(=O)NCC(=O)NC(C(C)NC(=O)CNC(=O)CCCCCN)C(=O)NC(C(C)C)C(=O)N2CCCC2C(=O)NC1C (stereo not drawn) [Compound 197, C15-Amphomycin-9-Gly-Ahx]
The MIC of the first is higher: 1 µg/mL for the first, 0.25 to 0.5 µg/mL for the second.

First: CCCCCCCCCCCCCCC(=O)NC(CC(=O)O)C(=O)NC1C(=O)N2CCCCC2C(=O)NC(C(C)C(=O)O)C(=O)NC(CC(=O)O)C(=O)NCC(=O)NC(CC(=O)O)C(=O)NCC(=O)NC(C(C)NC(=O)CCNC(=O)[C@@H](N)C(C)C)C(=O)NC(C(C)C)C(=O)N2CCCC2C(=O)NC1C (stereo partly drawn) [Compound 174, C15-Amphomycin-9-(β-Ala)-Val]
Second: CCCCCCCCCCCCCCC(=O)NC(CC(=O)O)C(=O)NC1C(=O)N2CCCCC2C(=O)NC(C(C)C(=O)O)C(=O)NC(CC(=O)O)C(=O)NCC(=O)NC(CC(=O)O)C(=O)NCC(=O)NC(C(C)NC(=O)CNC(=O)CNC(=O)[C@@H](N)CCCCN)C(=O)NC(C(C)C)C(=O)N2CCCC2C(=O)NC1C (stereo partly drawn) [Compound 192, C15-Amphomycin-9-Gly-Gly-Lys]
The MIC of the first is higher: 2 µg/mL for the first, 0.5 to 1 µg/mL for the second.

Going from `CCCCCCCCCCCCCCC(=O)NC(CC(=O)O)C(=O)NC1C(=O)N2CCCCC2C(=O)NC(C(C)C(=O)O)C(=O)NC(CC(=O)O)C(=O)NCC(=O)NC(CC(=O)O)C(=O)NCC(=O)NC(C(C)NC(=O)CNC(=O)[C@H](CCCCN)NC(=O)CN)C(=O)NC(C(C)C)C(=O)N2CCCC2C(=O)NC1C` (stereo partly drawn) [Compound 190, C15-Amphomycin-9-Gly-Lys-Gly] to `CCCCCCCCCCCCCCC(=O)NC(CC(=O)O)C(=O)NC1C(=O)N2CCCCC2C(=O)NC(C(C)C(=O)O)C(=O)NC(CC(=O)O)C(=O)NCC(=O)NC(CC(=O)O)C(=O)NCC(=O)NC(C(C)NC(=O)CNC(=O)[C@H](CCCCN)NC(=O)[C@@H](N)CCCCN)C(=O)NC(C(C)C)C(=O)N2CCCC2C(=O)NC1C` (stereo partly drawn) [Compound 191, C15-Amphomycin-9-Gly-Lys-Lys], the MIC rises from 1 µg/mL to 8 µg/mL (8-fold).

Going from `CCCCCCCCCCCCCCC(=O)NC(CC(=O)O)C(=O)NC1C(=O)N2CCCCC2C(=O)NC(C(C)C(=O)O)C(=O)NC(CC(=O)O)C(=O)NCC(=O)NC(CC(=O)O)C(=O)NCC(=O)NC(C(C)NC(=O)[C@H](CCCCN)NC(=O)[C@@H](N)CCCCN)C(=O)NC(C(C)C)C(=O)N2CCCC2C(=O)NC1C` (stereo partly drawn) [Compound 194, C15-Amphomycin-9-Lys-Lys] to `CCCCCCCCCCCCCCC(=O)NC(CC(=O)O)C(=O)NC1C(=O)N2CCCCC2C(=O)NC(C(C)C(=O)O)C(=O)NC(CC(=O)O)C(=O)NCC(=O)NC(CC(=O)O)C(=O)NCC(=O)NC(C(C)NC(=O)[C@H](CCCCN)NC(=O)[C@H](CCCCN)NC(=O)[C@@H](N)CCCCN)C(=O)NC(C(C)C)C(=O)N2CCCC2C(=O)NC1C` (stereo partly drawn) [Compound 195, C15-Amphomycin-9-Lys-Lys-Lys], the MIC rises from 2 µg/mL to 4 µg/mL (2-fold).
